Measurements published in patent US9580444B2, “Polycyclic pyrazolinone derivative and herbicide comprising same as effective component thereof” (priority 2013, dated 2017).

How the values were obtained:
Type in all cases: in vivo
[1] = system: Abutilon theophrasti (velvetleaf); test: Test Example-4: herbicidal effect by a foliage treatment after weeds are generated under upland field conditions; conditions: 500 g a.i/ha, foliage treatment after emergence, about 14 days after treatment, score 0-5
Text: (§1) Using the formulation prepared according to the methods described above, the herbicidal effect of the bicyclic pyrazolinone derivative of the invention according to the methods shown in Test Examples below was examined. The herbicidal effect with respect to the test weeds or the phytotoxicity with respect to the test crops was examined according to the following criteria, and evaluated in six stage scores of 0 to 5. A vat having an area of 65 cm^2 and a depth of 2 cm was filled with upland soil, then, seeds of Amaranthus viridis (green amaranthus), Abutilon theophrasti (velvetleaf), Chenopodium album (common lambsquarters), […]. While watering was suitably performed on there, the seeds were grown for 14 days. A wettable powder or an emulsifiable concentrate of the compound of the present invention prepared according to Formulation Example was diluted, and a spray treatment was uniformly performed on the foliage portion of the plant so as to be a predetermined dosage in the amount of water of 4000 L per hectare. The herbicidal effect with respect to the test weeds and the phytotoxicity with respect to corn about 14 days after the treatment were evaluated according to the evaluation criteria in six stages of 0 to 5 described above.

[2] = system: Amaranthus viridis (green amaranthus); test: as above; conditions: 500 g a.i/ha, foliage treatment after emergence, about 14 days after treatment, score 0-5
Text: as §1

[3] = system: Chenopodium album (common lambsquarters); test: as above; conditions: 500 g a.i/ha, foliage treatment after emergence, about 14 days after treatment, score 0-5
Text: as §1

corn = test: Test Example-4: phytotoxicity by a foliage treatment after weeds are generated under upland field conditions; conditions: 500 g a.i/ha, foliage treatment after emergence, about 14 days after treatment, score 0-5
Text: as §1

[4] = system: Cyperus difformis (smallflower umbrella plant); test: Test Example-1: herbicidal effect by a treatment before weeds are generated under submerged conditions; conditions: 500 g a.i/ha, pre-emergence treatment, about 15 days after treatment, score 0-5
Method in brief: (§2)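 Flooded paddy-soil cups, seeded and treated by submersion application on sowing day; rated 0–5 ~15 d later.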

[5] = system: Echinochloa oryzicola (barnyard grass); test: as above; conditions: 500 g a.i/ha, pre-emergence treatment, about 15 days after treatment, score 0-5
Method in brief: as §2

[6] = system: Eleocharis acicularis (needle spikerush); test: as above; conditions: 500 g a.i/ha, pre-emergence treatment, about 15 days after treatment, score 0-5
Method in brief: as §2

[7] = system: Monochoria vaginalis (monochoria); test: as above; conditions: 500 g a.i/ha, pre-emergence treatment, about 15 days after treatment, score 0-5
Method in brief: as §2

[8] = system: Scirpus juncoides (bulrush); test: as above; conditions: 500 g a.i/ha, pre-emergence treatment, about 15 days after treatment, score 0-5
Method in brief: as §2

[9] = system: other annual broad leaf weeds (Lindernia procumbens, Rotala indica, Elatine triandra); test: as above; conditions: 500 g a.i/ha, pre-emergence treatment, about 15 days after treatment, score 0-5
Method in brief: as §2

Row | SMILES | Herbicidal effect Abutilon theophrast [1] | Herbicidal effect Amaranthus viridis [2] | Herbicidal effect Chenopodium album [3] | Phytotoxicity Corn (corn) | Herbicidal effect Cyperus difformis [4] | Herbicidal effect Echinochloa oryzicola [5] | Herbicidal effect Eleocharis acicularis [6] | Herbicidal effect Monochoria vaginalis [7] | Herbicidal effect Scirpus juncoides [8] | Herbicidal effect Broadleaf weed [9]
1 | COC(=O)C=C(COc1cc(-c2c(Cl)n3n(c2=O)CCCC3)c(F)cc1Cl)OC (mixture of isomers) [Example 2-1] | 5 (Herbicidal effect/phytotoxicity was 90% or greater) | 5 (Herbicidal effect/phytotoxicity was 90% or greater) | 5 (Herbicidal effect/phytotoxicity was 90% or greater) | 1 (Herbicidal effect/phytotoxicity was 10% to 30%) | – | – | – | – | – | –
2 | C=CCOC(=O)C=C(COc1cc(-c2c(Cl)n3n(c2=O)CCCC3)c(F)cc1Cl)OC (mixture of isomers) [Example 2-8] | 5 (Herbicidal effect/phytotoxicity was 90% or greater) | 5 (Herbicidal effect/phytotoxicity was 90% or greater) | 5 (Herbicidal effect/phytotoxicity was 90% or greater) | 2 (Herbicidal effect/phytotoxicity was 30% to 50%) | – | – | – | – | – | –
3 | CCOC(=O)C=C(COc1cc(-c2c(Cl)n3n(c2=O)CCCC3)c(F)cc1Cl)OC (mixture of isomers) [Example 2-14] | 5 (Herbicidal effect/phytotoxicity was 90% or greater) | 5 (Herbicidal effect/phytotoxicity was 90% or greater) | 5 (Herbicidal effect/phytotoxicity was 90% or greater) | 0 (Herbicidal effect/phytotoxicity was 0% to 10%) | – | – | – | – | – | –
4 | CCCOC(=CC(=O)OCC)COc1cc(-c2c(Cl)n3n(c2=O)CCCC3)c(F)cc1Cl (mixture of isomers) [Example 2-20] | 5 (Herbicidal effect/phytotoxicity was 90% or greater) | 5 (Herbicidal effect/phytotoxicity was 90% or greater) | 5 (Herbicidal effect/phytotoxicity was 90% or greater) | 0 (Herbicidal effect/phytotoxicity was 0% to 10%) | – | – | – | – | – | –
5 | CCCOC(=O)C=C(COc1cc(-c2c(Cl)n3n(c2=O)CCCC3)c(F)cc1Cl)OCC (mixture of isomers) [Example 2-23] | 5 (Herbicidal effect/phytotoxicity was 90% or greater) | 5 (Herbicidal effect/phytotoxicity was 90% or greater) | 5 (Herbicidal effect/phytotoxicity was 90% or greater) | 0 (Herbicidal effect/phytotoxicity was 0% to 10%) | – | – | – | – | – | –
6 | COc1cc(-c2c(Cl)n3n(c2=O)CCCC3)ccc1Cl [Example 1-44] | 5 (Herbicidal effect/phytotoxicity was 90% or greater) | 5 (Herbicidal effect/phytotoxicity was 90% or greater) | 5 (Herbicidal effect/phytotoxicity was 90% or greater) | 0 (Herbicidal effect/phytotoxicity was 0% to 10%) | – | – | – | – | – | –
7 | CC(C)Oc1cc(-c2c(Cl)n3n(c2=O)CCCC3)ccc1Cl [Example 1-49] | 5 (Herbicidal effect/phytotoxicity was 90% or greater) | 5 (Herbicidal effect/phytotoxicity was 90% or greater) | 5 (Herbicidal effect/phytotoxicity was 90% or greater) | 0 (Herbicidal effect/phytotoxicity was 0% to 10%) | – | – | – | – | – | –
8 | C=CCOc1cc(-c2c(Cl)n3n(c2=O)CCCC3)ccc1Cl [Example 1-59] | 5 (Herbicidal effect/phytotoxicity was 90% or greater) | 5 (Herbicidal effect/phytotoxicity was 90% or greater) | 5 (Herbicidal effect/phytotoxicity was 90% or greater) | 0 (Herbicidal effect/phytotoxicity was 0% to 10%) | – | – | – | – | – | –
9 | C#CCOc1cc(-c2c(Cl)n3n(c2=O)CCOCC3)ccc1Cl [Example 1-66] | 5 (Herbicidal effect/phytotoxicity was 90% or greater) | 5 (Herbicidal effect/phytotoxicity was 90% or greater) | 5 (Herbicidal effect/phytotoxicity was 90% or greater) | 1 (Herbicidal effect/phytotoxicity was 10% to 30%) | – | – | – | – | – | –
10 | CCOC(=O)C(Cl)Cc1cc(-c2c(Cl)n3n(c2=O)CCCC3)c(F)cc1Cl (stereo not drawn) [Example 1-260] | – | – | – | – | 5 (Herbicidal effect/phytotoxicity was 90% or greater) | 5 (Herbicidal effect/phytotoxicity was 90% or greater) | 5 (Herbicidal effect/phytotoxicity was 90% or greater) | 5 (Herbicidal effect/phytotoxicity was 90% or greater) | 5 (Herbicidal effect/phytotoxicity was 90% or greater) | 5 (Herbicidal effect/phytotoxicity was 90% or greater)
11 | O=c1c(-c2ccc(Cl)cc2Cl)c(Cl)n2n1CCCC2 [Example 1-280] | – | – | – | – | 5 (Herbicidal effect/phytotoxicity was 90% or greater) | 5 (Herbicidal effect/phytotoxicity was 90% or greater) | 5 (Herbicidal effect/phytotoxicity was 90% or greater) | 5 (Herbicidal effect/phytotoxicity was 90% or greater) | 5 (Herbicidal effect/phytotoxicity was 90% or greater) | 5 (Herbicidal effect/phytotoxicity was 90% or greater)
12 | COc1cc(-c2c(Cl)n3n(c2=O)CCCCC3)c(Cl)cc1Cl [Example 1-293] | – | – | – | – | 5 (Herbicidal effect/phytotoxicity was 90% or greater) | 5 (Herbicidal effect/phytotoxicity was 90% or greater) | 5 (Herbicidal effect/phytotoxicity was 90% or greater) | 5 (Herbicidal effect/phytotoxicity was 90% or greater) | 5 (Herbicidal effect/phytotoxicity was 90% or greater) | 5 (Herbicidal effect/phytotoxicity was 90% or greater)
13 | O=c1c(-c2cc(Oc3c(F)cc(C(F)(F)F)cc3Cl)c(F)cc2F)c(Cl)n2n1CCCC2 [Example 1-340] | – | – | – | – | 5 (Herbicidal effect/phytotoxicity was 90% or greater) | 5 (Herbicidal effect/phytotoxicity was 90% or greater) | 5 (Herbicidal effect/phytotoxicity was 90% or greater) | 5 (Herbicidal effect/phytotoxicity was 90% or greater) | 5 (Herbicidal effect/phytotoxicity was 90% or greater) | 5 (Herbicidal effect/phytotoxicity was 90% or greater)
14 | COc1cc(-c2c(F)n3n(c2=O)CCCC3)c(Cl)cc1Cl [Example 1-356] | – | – | – | – | 5 (Herbicidal effect/phytotoxicity was 90% or greater) | 5 (Herbicidal effect/phytotoxicity was 90% or greater) | 5 (Herbicidal effect/phytotoxicity was 90% or greater) | 5 (Herbicidal effect/phytotoxicity was 90% or greater) | 5 (Herbicidal effect/phytotoxicity was 90% or greater) | 5 (Herbicidal effect/phytotoxicity was 90% or greater)
15 | C#CCOc1cc(-c2c(F)n3n(c2=O)CCCCC3)c(Cl)cc1Cl [Example 1-361] | – | – | – | – | 5 (Herbicidal effect/phytotoxicity was 90% or greater) | 5 (Herbicidal effect/phytotoxicity was 90% or greater) | 5 (Herbicidal effect/phytotoxicity was 90% or greater) | 5 (Herbicidal effect/phytotoxicity was 90% or greater) | 5 (Herbicidal effect/phytotoxicity was 90% or greater) | 5 (Herbicidal effect/phytotoxicity was 90% or greater)
16 | O=c1c(-c2cc(Oc3cccnc3[N+](=O)[O-])c(Cl)cc2F)c(Cl)n2n1CCCC2 [Example 1-386] | – | – | – | – | 5 (Herbicidal effect/phytotoxicity was 90% or greater) | 5 (Herbicidal effect/phytotoxicity was 90% or greater) | 5 (Herbicidal effect/phytotoxicity was 90% or greater) | 5 (Herbicidal effect/phytotoxicity was 90% or greater) | 5 (Herbicidal effect/phytotoxicity was 90% or greater) | 5 (Herbicidal effect/phytotoxicity was 90% or greater)
17 | C#CCN(C)c1cc(-c2c(Cl)n3n(c2=O)CCCC3)c(F)cc1Cl [Example 5-68] | – | – | – | – | 5 (Herbicidal effect/phytotoxicity was 90% or greater) | 5 (Herbicidal effect/phytotoxicity was 90% or greater) | 5 (Herbicidal effect/phytotoxicity was 90% or greater) | 5 (Herbicidal effect/phytotoxicity was 90% or greater) | 5 (Herbicidal effect/phytotoxicity was 90% or greater) | 5 (Herbicidal effect/phytotoxicity was 90% or greater)
